Test results as given in US11793852B2, “Application of Longhu Rendan in preparing medicament for preventing and/or treating liver fibrosis” (Shanghai Zhonghua Pharmaceutical Co., Ltd, priority 2017, dated 2023).

Key:
[1] = test system: mice with liver fibrosis induced by CCl4; test: Serological indicators (serum AST and ALT activity) in mice with liver fibrosis induced by CCl4; format: in vivo; details: silybin 70 mg/kg/d, gastric perfusion, 6 weeks; compared to the CCl4 group, P<0.05
Experimental: (§1) Experimental animals: SPF grade C57 mice, 8-week old, half male and half female, supplied by Guangdong Medical Lab Animal Center, housed in an animal room in a barrier environment (SPF grade), and feeds and water and libitum. Certificate [SCXK(YUE) 2013-0002].
Administration: 32 pills of Longhu Rendan were placed in a mortar and ground, dissolved in 20 mL of 0.5% CMC-Na, pipetted into a 50-mL centrifuge tube, vortexed to be completely dissolved, and made up to 32 mL (solution A). Six 5-ml EP tubes were charged with the solution A per 3 mL/tube (namely, daily dosage for a high-dose group). Another 50-mL tube was charged with 9 ml of the solution A, added with 9 mL 0.5% CMC-Na, and mixed uniformly; and six 5-ml EP tubes were charged with the solution per 3 mL/tube (namely, daily dosage for a medium-dose group). Another 50-mL centrifuge tube was charged with 4.5 ml of the solution A, added with the 0.5% CMC-Na solution to 18 mL, and mixed uniformly; and six 5-ml EP tubes were charged with the solution per 3 mL/tube (namely, daily dosage for a low-dose group). Continue for 6 weeks, 6×32 pills=192 pills in total, about 4 boxes. […]
After fasting for 12 h, the eyeballs were removed and blood was taken and serum was separated. ALT and AST activities were determined by alanine aminotransferase (ALT) and aspartate aminotransferase (AST) kits.

[2] = test system: mice with liver fibrosis induced by CCl4; test: Pathological indicators (HE, Sirius Red, α-SMA immunohistochemical staining of livers) in mice with liver fibrosis induced by CCl4; format: in vivo; details: silybin 70 mg/kg/d, 6 weeks
Experimental: as §1
Administration: 32 pills of Longhu Rendan were placed in a mortar and ground, dissolved in 20 mL of 0.5% CMC-Na, pipetted into a 50-mL centrifuge tube, vortexed to be completely dissolved, and made up to 32 mL (solution A). Six 5-ml EP tubes were charged with the solution A per 3 mL/tube (namely, daily dosage for a high-dose group). Another 50-mL tube was charged with 9 ml of the solution A, added with 9 mL 0.5% CMC-Na, and mixed uniformly; and six 5-ml EP tubes were charged with the solution per 3 mL/tube (namely, daily dosage for a medium-dose group). Another 50-mL centrifuge tube was charged with 4.5 ml of the solution A, added with the 0.5% CMC-Na solution to 18 mL, and mixed uniformly; and six 5-ml EP tubes were charged with the solution per 3 mL/tube (namely, daily dosage for a low-dose group). Continue for 6 weeks, 6×32 pills=192 pills in total, about 4 boxes.
Formulation of silybin: one 50-mL centrifuge tube was added with 10 to 12 mL of 0.5% CMC-Na, charged with 4 capsules, dissolved, made up to 20 mL with 0.5% CMC-Na, and mixed uniformly. Six 5-ml EP tubes were charged with the solution per 3 mL/tube (namely, daily dosage). Continue for 6 weeks, 6×4 capsules=24 capsules in total, about 2 boxes.
[…] healthy KM mice were randomly divided into 6 groups with 8 mice/group. Namely: a blank control group, a CCl4 model group, a silybin positive control group, and low, medium, and high dose groups of Longhu Rendan. All groups received a normal diet. […]
HE staining, Sirius Red staining, and smooth muscle actin protein α-SMA immunohistochemical staining. Positive staining areas of Sirius Red staining and immunohistochemical staining were calculated by the ImageJ software, data was processed and plotted by GraphPadPrism, and t-test analysis was performed, where P<0.05 was considered statistically significant.

With `COc1cc(C2Oc3cc([C@H]4Oc5cc(O)cc(O)c5C(=O)[C@@H]4O)ccc3OC2CO)ccc1O` (stereo partly shown) [silybin] the “serum AST activity” value [1] was “significantly reduced”, the “degree of fibrosis (Sirius Red staining of mouse livers)” value [2] was “significantly improve the degree of fibrosis” and the “degree of fibrosis (α-SMA immunohistochemical staining of mouse livers)” value [2] was “significantly improve the degree of fibrosis”. For the same compound, the “inflammatory infiltration and liver injury (HE staining of mouse livers)” value ([2]; compared to the CCl4 model group) was “improved at different degrees”.
